What all share (assay): growth of human tumour cells (NCI), 48 h
The subject of experiment [1] is UACC-257 melanoma.
Experiment [2] has as its system OVCAR-4 ovarian.
Experiment [3] has as its system NCI-H226 lung.
The subject of experiment [4] is KM12 colon.
Experiment [5] deals with COLO 205 colon.
For experiment [6], the system named is SNB-19 CNS.
The test system of experiment [7] is EKVX NSCLC.
Experiment [8] deals with HOP-62 NSCLC.
In experiment [9] the test system is UACC-62 melanoma.
In experiment [10] the test system is IGROV1 ovarian.

Each structure is given as a SMILES string. Values joined by “and” are separate entries in the source; they are usually repeats but may differ in a detail not shown here. Identical values can stand only once.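 Dose response: 5 concentrations. Exposure: 48 h. Format: 96-well plates. Endpoint: linear interpolation; highest concentration if not reached. The concentration for 50% growth inhibition is given as GI50. TGI denotes the concentration required for complete inhibition of growth.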

As to `Nc1nccc(-c2c(-c3ccc(F)cc3)ncn2C2CCC(O)CC2)n1` (stereo unspecified), the GI50 was 16.1 µM in experiment [1]; 2.92 µM in experiment [2]; 5.45 µM in experiment [3]; 7.82 µM in [4]; 7.1 µM in experiment [5]; 15.6 µM in experiment [6]. Besides, the GI50 in experiment [7] is 8.57 µM; in experiment [8], 13.2 µM; in experiment [9] it was 10.6 µM; in [10], 4.32 µM. Also, the TGI is more than 25 µM in experiment [1]; more than 25 µM in [2]; 24.5 µM in experiment [3]; more than 25 µM in experiment [4]; more than 25 µM in [5]; more than 25 µM in experiment [6]. In addition, the TGI in experiment [7] was more than 25 µM; in experiment [8], more than 25 µM; in experiment [9] it was more than 25 µM; in [10] it was 24.8 µM.

`Cc1cc(Cl)cc2c1NC(=O)C2(O)CC(=O)c1ccco1` (stereo unspecified): the TGI in experiment [1] is more than 100 µM; in experiment [2], 23.9 µM; in experiment [3], more than 100 µM; in [4], more than 100 µM; in experiment [5], more than 100 µM; in experiment [6], more than 100 µM. In addition, the TGI in [7] was more than 100 µM; in experiment [8], more than 100 µM; in [9] it was 67.5 µM; in experiment [10], more than 100 µM.

In the case of `CCCCCCCC[C@@H](O)CC(=O)N[C@@H](CC(N)=O)C(=O)N[C@@H](CCC(N)=O)C(=O)N[C@@H](CC(=O)c1cc(C)cc(O)c1C(=O)c1c(O)cccc1O)CC(C)C`, the GI50 was 0.45 µM in experiment [1]; 2.07 µM in [2]; 0.237 µM in experiment [3]; 0.971 µM in [4]; 0.399 µM in experiment [5]; 0.244 µM in [6]. For the same molecule, the GI50 is 3.35 µM in [7], 0.86 µM in experiment [8], 0.317 µM in experiment [9] and 0.261 µM in experiment [10]. Also, the TGI in experiment [1] was 4.68 µM; in experiment [2], more than 100 µM; in [3] it was 0.746 µM; in experiment [4] it was 3.3 µM; in experiment [5], 12 µM; in experiment [6] it was more than 100 µM. In addition, the TGI is 75.5 µM in experiment [7], 4.92 µM in experiment [8], 1.89 µM in [9] and more than 100 µM in [10].

On to `CCCn1c(=S)sc2c1nc(C)n1c(Nc3ccccc3)nnc21`, for which the GI50 in [1] was 3.36 µM; in experiment [2], 3.46 µM; in [3] it was 4.98 µM; in experiment [5] it was 17 µM; in [6], 3.94 µM; in experiment [8], 7.15 µM. For the same molecule, the GI50 is 3.09 µM in experiment [9] and 25.8 µM in experiment [10]. Moreover, the TGI in [1] was 36.1 µM; in [2] it was more than 100 µM; in experiment [3], 23.6 µM; in experiment [5], 47.3 µM; in experiment [6], more than 100 µM; in experiment [8], 23.9 µM. Besides, the TGI in [9] was 18.9 µM; in [10], more than 100 µM.

Regarding `Cc1ccc(C(=O)N(CCCN)C(c2oc3cc(Cl)ccc3c(=O)c2Cc2ccccc2)C(C)C)cc1` (stereo unspecified), the GI50 in experiment [1] was less than 0.01 µM; in [2], 0.899 µM; in [3] it was 1.47 µM; in experiment [4], less than 0.01 µM; in experiment [5] it was less than 0.01 µM; in [6], 1.02 µM. Further, the GI50 in [8] and in experiment [9] was less than 0.01 µM each time. The TGI in [1] turned out to be 1.97 µM; in experiment [2] it was 2.47 µM; in experiment [3] it was 3.23 µM; in experiment [4], 1.47 µM; in [5], 0.595 µM; in experiment [6] it was 2.41 µM. For the same molecule, the values for the TGI in experiment [8], in experiment [9] and in experiment [10] were 1.85 µM, 2.3 µM and 2.72 µM, respectively.

Consider `Cc1c(C(=O)C/C(=N/NC(=O)C[N+](C)(C)C)C(=O)Nc2ccc(Cl)cc2)[n+](=O)c2ccccc2n1O`, for which the TGI in [1], in [2], in experiment [3], in [4], in experiment [5] and in [6] was more than 100 µM throughout. Further, the TGI in experiment [7], in [8], in [9] and in experiment [10] was more than 100 µM in each case.

As to `Cc1cc2c(cc1Cl)SC1=NN(C)S(=O)N1S2(=O)=O` (stereo unspecified), the GI50 in experiment [1], in experiment [2], in experiment [3], in experiment [4], in experiment [5] and in [6] was more than 100 µM throughout. Moreover, the GI50 is more than 100 µM in experiment [7], more than 100 µM in [8], 88.4 µM in experiment [9] and more than 100 µM in experiment [10]. The TGI in experiment [1], in experiment [2], in [3], in experiment [4], in experiment [5] and in experiment [6] was more than 100 µM throughout. Further, the TGI in experiment [7], in [8], in [9] and in experiment [10] was more than 100 µM in each case.

In the case of `CCOCC(=O)N[C@H]1CCc2cc(OC)c(OC)c(OC)c2-c2ccc(OC)c(=O)cc21`, the TGI in [1] was more than 100 µM; in experiment [2] it was more than 100 µM; in experiment [3] it was 2.52 µM; in experiment [4] it was 0.0334 µM; in experiment [5], 0.0205 µM; in [6] it was more than 100 µM. Further, the TGI in [7], in experiment [8], in experiment [9] and in experiment [10] was more than 100 µM each time.

Turning to `CCCC(=O)OCC1OC(n2cnc3c(=S)nc[nH]c32)C(OC(=O)CCC)C1OC(=O)CCC` (stereo unspecified), the GI50 is 10.7 µM in experiment [1]; 0.802 µM in experiment [2]; 5.77 µM in experiment [3]; 4.99 µM in experiment [4]; 4.57 µM in experiment [5]; 46.4 µM in experiment [6]. Moreover, the GI50 in experiment [7] is 35 µM; in experiment [8], 2.84 µM; in experiment [9] it was 1.91 µM; in experiment [10], 10.3 µM. Moreover, the TGI in [1] was more than 100 µM; in [2], more than 100 µM; in [3], more than 100 µM; in experiment [4], more than 100 µM; in experiment [5], 18.9 µM; in [6], more than 100 µM. Besides, the TGI in [7], in experiment [8], in [9] and in experiment [10] was more than 100 µM throughout.

As to `O=C(Nc1ccncc1)C(=O)c1cn(S(=O)(=O)c2cccc(F)c2)c2ccccc12`, the GI50 in experiment [1] was 13.5 µM; in [2], 5.09 µM; in [3] it was 16.9 µM; in experiment [4], 3.04 µM; in [5], 32.4 µM; in experiment [6] it was 49.2 µM. In addition, the GI50 in experiment [7] is 4.17 µM; in [8] it was 3.58 µM; in experiment [9], 2.96 µM; in [10], 8.33 µM. Also, the TGI in experiment [1], in experiment [2], in experiment [3], in experiment [4], in experiment [5] and in [6] was more than 100 µM throughout. Besides, the TGI in [7] was more than 100 µM; in [8], 61 µM; in experiment [9], more than 100 µM; in experiment [10], more than 100 µM.

For the molecule `CCCCCCCCn1ccc2cc(NC(=O)Cn3cc(CN4CCCC4)nn3)ccc21`, the GI50 in experiment [1] was 1.86 µM; in experiment [2], 4.97 µM; in [3] it was 1.59 µM; in [4], 1.95 µM; in [5], 1.99 µM; in experiment [6], 1.73 µM. Besides, the GI50 was 1.82 µM in experiment [7], 1.75 µM in experiment [8], 1.7 µM in [9] and 1.74 µM in experiment [10]. Further, the TGI in experiment [1] is 3.57 µM; in [2], 18.1 µM; in [3] it was 3.16 µM; in experiment [4], 3.98 µM; in [5], 3.82 µM; in [6] it was 3.34 µM. For the same molecule, the TGI came to 4 µM in experiment [7], 3.49 µM in experiment [8], 3.16 µM in experiment [9] and 3.59 µM in [10].

Consider `O=C1c2cccc([N+](=O)[O-])c2C(=O)N1c1ncn[nH]1`, for which the TGI in [1], in experiment [2], in [3], in experiment [4], in experiment [5] and in experiment [6] was more than 100 µM each time. Moreover, the TGI in experiment [7], in experiment [8], in [9] and in [10] was more than 100 µM in each case.

On to `CC(=O)O[C@H]1C(=O)[C@@]2(C)C(C(OC(=O)c3ccccc3)[C@]3(O)CC(OC(=O)[C@H](OC(=O)CCC(=O)O)C(NC(=O)c4ccccc4)c4ccccc4)C(C)=C1C3(C)C)C1(OC(C)=O)COC1C[C@@H]2O` (stereo partly specified), for which the GI50 was < 0.01 µM and 0.0295 µM in experiment [1]; 0.121 µM and 0.875 µM in experiment [7]; < 0.0175 µM and 0.0835 µM in [8]. Moreover, the TGI was more than 100 µM in experiment [1]; more than 100 µM in [2]; more than 100 µM in experiment [3]; < 0.0142 µM and 0.04 µM in experiment [5]; more than 100 µM in experiment [6]; more than 100 µM in experiment [7]. Besides, the TGI in experiment [8] was more than 100 µM; in [10] it was > 67.7 µM and 50 µM.

Take `COc1cc[nH]c1/C=C1\C(=O)Nc2ccc(F)c(C#CC3(O)CCNCC3)c21`: the GI50 in experiment [1] was 0.363 µM; in [2] it was 0.346 µM; in experiment [3], 0.138 µM; in [4], 0.0025 µM; in experiment [5], 0.0303 µM; in experiment [6] it was 0.564 µM. The GI50 was 0.261 µM in [8], 0.16 µM in experiment [9] and 0.383 µM in [10]. Further, the TGI is 1.6 µM in experiment [1]; 1.62 µM in experiment [2]; 0.92 µM in [3]; 0.726 µM in experiment [4]; 0.372 µM in [5]; 2.15 µM in experiment [6]. Moreover, the TGI stood at 1.47 µM in experiment [8], 0.633 µM in experiment [9] and 2.27 µM in experiment [10].

As to `COCCCNC(=O)C1C(=O)C(=O)N(CCCOC)C1=O` (stereo unspecified), the TGI in experiment [1], in experiment [2], in experiment [3], in experiment [5], in [6] and in experiment [7] was more than 100 µM each time. Also, the TGI in experiment [8], in experiment [9] and in [10] was more than 100 µM each time.

Consider `N#C/C(=C\c1ccc2ccccc2c1)c1ccccc1`, for which the TGI in experiment [1] is more than 100 µM; in experiment [2], 69.1 µM; in [3], more than 100 µM; in experiment [4], more than 100 µM; in experiment [5], 35.9 µM; in experiment [8], 74.6 µM. Moreover, the TGI in experiment [9] is 36.7 µM; in experiment [10] it was 37.3 µM.

Take `CCc1ccccc1NC(=O)C1=C(C)NC(C)=C(C(=O)Nc2ccccc2CC)C1c1ccc2c(c1)OCO2`: the TGI in experiment [1] was more than 100 µM; in [2], 92 µM; in experiment [3] it was 81.4 µM; in experiment [4], 50.6 µM; in [5] it was more than 100 µM; in experiment [6], more than 100 µM. For the same molecule, the figures for the TGI in [7], in [8] and in experiment [10] were more than 100 µM, 59.8 µM and more than 100 µM, respectively.

Regarding `C#CCNC(=O)c1cccc2c1cc(C)n2-c1nc2c(c(NCc3ccccc3)n1)CCCC2`, the GI50 in experiment [2] was 0.022 µM; in experiment [3], 0.017 µM; in [4] it was 0.0231 µM; in experiment [5], 0.0191 µM; in [6] it was 0.0362 µM; in [7], 0.028 µM. Further, the GI50 is 0.0308 µM in experiment [8], 0.0158 µM in experiment [9] and 0.0276 µM in experiment [10]. Moreover, the TGI worked out at 0.0709 µM in experiment [2]; 0.0491 µM in experiment [3]; 0.065 µM in [4]; 0.0382 µM in experiment [5]; 0.126 µM in experiment [6]; 0.112 µM in [7]. Also, the TGI stood at 0.114 µM in experiment [8], 0.0359 µM in experiment [9] and 0.102 µM in experiment [10].
